Measurements taken from patent publication US20210395256A1, “TYROSINE KINASE INHIBITORS, COMPOSITIONS AND METHODS THERE OF” (Betta Pharmaceuticals Co., Ltd., priority 2018, published 2021).

Columns and labels:
[1] = Plasma protein binding (equilibrium dialysis), rat; assay type: in vitro ADME; conditions: pH 7.4, 6 hours dialysis; for fraction unbound at 6 h, 1 μM: read-out: Mean % Bound Rat (converted)
Experimental: Example 204 Plasma Protein Binding Measurements
The plasma protein binding was measured as the following procedure.
1) Preparation of 100 mM sodium phosphate and 150 mM NaCl buffer (PBS)
A basic solution was prepared by dissolving 14.2 g/L Na2HPO4 and 8.77 g/L NaCl in deionized water and the solution could be stored at 4° C. for up to 7 days. An acidic solution was prepared by dissolving 12.0 g/L NaH2PO4 and 8.77 g/L NaCl in deionized water and the solution could be stored at 4° C. for up to 7 days. The basic solution was titrated with the acidic solution to pH 7.4 and store at 4° C. for up to 7 days. pH was checked on the day of experiment and was adjusted if outside specification of 7.4±0.1.
Frozen plasma was thawed immediately at room temperature.
The plasma was centrifuged at 3,220 g for 10 minutes to remove clots and supernatant was collected into a fresh tube. The pH of the plasma was checked and recorded.
Note: a). Only use plasma that has been thawed no more than twice since arrival. b). Only use plasma within the range of pH 7 to pH 8.
3) Preparation of working solutions
The working solutions of test compounds and control compound ketoconazole were prepared in DMSO at the concentration of 200 μM. And then 3 μL of working solution was removed to mix with 597 μL of human, rat or mouse plasma to achieve a final concentration of 1 μM (0.5% DMSO). Plasma samples were vortexed thoroughly.
4) Preparation of dialysis membranes
The dialysis membranes were soaked in ultrapure water for 60 minutes to separate strips, then in 20% ethanol for 20 minutes, finally in dialysis buffer for 20 minutes.
5) Procedure for equilibrium dialysis
The dialysis apparatus was assembled according to the manufacturer's instruction. Each cell was filled with 120 μL of plasma sample and dialyzed against equal volume of dialysis buffer (PBS). The assay was performed in duplicate. The dialysis plate was sealed and incubated in an incubator at 37° C. with 5% CO2 at 100 rpm for 6 hours. At the end of incubation, seal was removed and 50 μL of samples from both buffer and plasma chambers were transferred to wells of a 96-well plate.
6) Procedure for sample analysis
50 μL of blank plasma was added to each buffer samples and an equal volume of PBS was supplemented to the collected plasma sample. 300 μL of room temperature quench solution (acetonitrile containing internal standards (1S, 100 nM Alprazolam, 500 nM Labetalol and 2 μM Ketoprofen)) was added to precipitate protein. Samples in plate were vortexed for 5 minutes and centrifuged at 3,220 g for 30 minutes at 4° C. And then 100 μL of the supernatant was transferred to a new 96-well plate with 100 μL or 200 μL water (depends on the LC-MS signal response and peak shape) for LC-MS/MS analysis.
Calculate the percentages of test compound and control compound bound as follows:
% Free=(Peak Area Ratiobuffer chamber/Peak Area Ratioplasma chamber)*100
% Recovery=(Peak Area Ratiobuffer chamber+Peak Area Ratioplasma chamber)/Peak Area Ratio total sample*100
Peak Area Ratiobuffer chamber means the conc for free fraction
Peak Area Ratioplasma chamber means the conc for both free and bound fraction
Peak Area Ratiototal sample means the conc for starting sample before incubation

[2] = target: T1, Ba/F3-TPM3-NTRK1 (Homo sapiens, UniProt P04629); assay: Ba/F3-TPM3-NTRK1 cells proliferation assay; assay type: cell-based; conditions: 72 h, CellTiter Glo
T1 construct: expressed in transfected cells; host or cells: Ba/F3; the other entry of the earlier key: TPM3 (P06753, Tropomyosin alpha-3 chain)
T1 sequence (P04629 510-796 limits assumed): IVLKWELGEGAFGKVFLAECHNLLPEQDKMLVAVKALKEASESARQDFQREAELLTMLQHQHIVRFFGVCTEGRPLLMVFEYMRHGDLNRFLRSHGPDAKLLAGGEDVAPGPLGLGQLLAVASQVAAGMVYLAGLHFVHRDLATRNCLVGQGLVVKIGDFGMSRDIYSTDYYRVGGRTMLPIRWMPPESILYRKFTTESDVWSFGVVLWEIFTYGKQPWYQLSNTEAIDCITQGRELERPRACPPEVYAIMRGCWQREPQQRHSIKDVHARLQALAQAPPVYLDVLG
Summary of the method: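 Ba/F3 cells stably expressing TPM3-NTRK1 or ETV6-NTRK3 fusions, 2000/well, exposed 72 h to compound at 300 to 0.05 nM final (3-fold series, 0.5% DMSO). Viability by CellTiter-Glo luminescence; IC50 by four-parameter nonlinear regression.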

Row | Structure (SMILES) | recovery at 6 h, 1 μM [1] [%] | fraction unbound at 6 h, 1 μM [1] | IC50 [2] [nM]
1 | Cc1nnc(-c2cnn3ccc(N4CCCC4c4cc(F)ccc4F)nc23)[nH]1 (centres unmarked) [Comparative compound A, 5-[2-(2,5-Difluorophenyl)pyrrolidin-1-yl]-3-(5-methyl-1H-1,2,4-triazol-3-yl)pyrazolo[1,5-a]pyrimidine, reference compound] | 93.8 | 0.0729 | 
2 | C[C@H](O)c1nnc(-c2cnn3ccc(N4CCC[C@@H]4c4cc(F)ccc4F)nc23)[nH]1 [Compound 4, (S)-1-(5-(5-((R)-2-(2,5-difluorophenyl)pyrrolidin-1-yl)pyrazolo[1,5-a]pyrimidin-3-yl)-4H-1,2,4-triazol-3-yl)ethan-1-ol] |  | 0.1 | 3.55
3 | CC(C)(O)c1nnc(-c2cnn3ccc(N4CCC[C@@H]4c4cc(F)ccc4F)nc23)[nH]1 [Compound 7, (R)-2-(5-(5-(2-(2,5-difluorophenyl)pyrrolidin-1-yl)pyrazolo[1,5-a]pyrimidin-3-yl)-4H-1,2,4-triazol-3-yl)propan-2-ol] | 90.8 |  | 8.17
4 | C[C@H](N)c1nnc(-c2cnn3ccc(N4CCC[C@@H]4c4cc(F)ccc4F)nc23)[nH]1 [Compound 11, (S)-1-(5-(5-((R)-2-(2,5-difluorophenyl)pyrrolidin-1-yl)pyrazolo[1,5-a]pyrimidin-3-yl)-4H-1,2,4-triazol-3-yl)ethan-1-amine] | 87.5 | 0.289 | 13.6
5 | OC1(c2nnc(-c3cnn4ccc(N5CCC[C@@H]5c5cc(F)ccc5F)nc34)[nH]2)CCC1 [Compound 23, (R)-1-(5-(5-(2-(2,5-difluorophenyl)pyrrolidin-1-yl)pyrazolo[1,5-a]pyrimidin-3-yl)-4H-1,2,4-triazol-3-yl)cyclobutan-1-ol] |  | 0.0699 | 20.9
6 | CC(C)(O)Cc1nnc(-c2cnn3ccc(N4CCC[C@@H]4c4cc(F)ccc4F)nc23)[nH]1 [Compound 30, (R)-1-(5-(5-(2-(2,5-difluorophenyl)pyrrolidin-1-yl)pyrazolo[1,5-a]pyrimidin-3-yl)-4H-1,2,4-triazol-3-yl)-2-methylpropan-2-ol] | 92.5 | 0.174 | 13.8
7 | OC1CC(c2nnc(-c3cnn4ccc(N5CCC[C@@H]5c5cc(F)ccc5F)nc34)[nH]2)C1 (stereo partly drawn) [Compound 31, (R)-3-(5-(5-(2-(2,5-difluorophenyl)pyrrolidin-1-yl)pyrazolo[1,5-a]pyrimidin-3-yl)-4H-1,2,4-triazol-3-yl)cyclobutan-1-ol] | 98.9 | 0.131 | 3.88
8 | C[C@@H](CO)c1nnc(-c2cnn3ccc(N4CCC[C@@H]4c4cc(F)ccc4F)nc23)[nH]1 [Compound 39, (R)-2-(5-(5-((R)-2-(2,5-difluorophenyl)pyrrolidin-1-yl)pyrazolo[1,5-a]pyrimidin-3-yl)-4H-1,2,4-triazol-3-yl)propan-1-ol] | 89.7 | 0.116 | 7.42
